Test [1] in a line: Number of mice died/no of mice treated with 5 mg/kg of compound in aqueous solution intraperitoneally with L1210 leukemia; 0/10. Type of test: functional. To be noted: route intraperitoneal.
In test [2] the test system is Mus musculus. The test can be described thus: The number of L1210 leukemia mice survived after 30 days with compound in aqueous solution injected by a dose of 5 mg/kg intraperitoneally; 6/10. The test is classed as functional. To be noted: route intraperitoneal.
The species entered for test [3] is Mus musculus. The test can be described thus: Median survival time of the non surviving mice; there are single deaths on day 20, day 21, day 22, and day 25; four deaths occurred. Type of test: functional, organism-based.
Test [4] relates to Mus musculus. The test can be described thus: The number of L1210 leukemia mice survived after 60 days with compound in aqueous solution injected by a dose of 5 mg/kg intraperitoneally; 6/10. Type of test: functional. The note with it: route intraperitoneal.
The nature of test [5]: Ratio of mice died to that of mice treated with 20 mg/kg of compound in olive oil intraperitoneally with Lewis lung; 0/20. The test is classed as functional. The note with it: route intraperitoneal.
Test [6] concerns Mus musculus. The test can be described thus: The number of Lewis lung mice survived after 30 days with compound in olive oil injected by a dose of 20 mg/kg intraperitoneally; 20/20. Type of test: functional. To be noted: route intraperitoneal.
The test system of test [7] is Mus musculus. The test can be described thus: The number of B16 melanocarcinoma mice survived after 30 days with compound in olive oil injected by a dose of 20 mg/kg intraperitoneally; 14/20. Type of test: functional. The note with it: route intraperitoneal.
Test [8] has as its system Mus musculus. The test can be described thus: Anti tumor activity in olive oil when treated to mice with L1210 leukemia with 5 mg/kg dose of compound intraperitoneally was expressed as percent of treated to control. Type of test: functional. To be noted: route intraperitoneal.
For test [9], the system named is Mus musculus. The test can be described thus: The number of L1210 leukemia mice survived after 30 days with compound in aqueous solution injected by a dose of 20 mg/kg intraperitoneally; 0/10. The test is classed as functional. To be noted: route intraperitoneal.
Test [10] deals with Mus musculus. The experiment in a line: The number of L1210 Leukemia mice survived after 60 days with compound in olive oil injected by a dose of 20 mg/kg intraperitoneally; 15/15. The test is classed as functional. To be noted: route intraperitoneal.
Test [11] has as its system Mus musculus. The test can be described thus: The number of L1210 leukemia mice survived after 60 days with compound in aqueous solution injected by a dose of 20 mg/kg intraperitoneally; 0/10. To be noted: route intraperitoneal. The test is classed as functional.
Test [12] can be described thus: Ratio of mice died to that of mice treated with 20 mg/kg of compound in olive oil intraperitoneally with B16 Melanocarcinoma; 0/20. The test is classed as functional. The note with it: route intraperitoneal.
Test [13] deals with Mus musculus. The test can be described thus: The number of L1210 Leukemia mice survived after 30 days with compound in olive oil injected by a dose of 20 mg/kg intraperitoneally; 15/15. Type of test: functional. The note with it: route intraperitoneal.
Test [14] has as its system Mus musculus. The experiment in a line: Median survival time of the non surviving mice; treated with 5 mg/kg of compound in olive oil to mice with L1210 leukemia and the value is mentioned in braces is range. Type of test: functional.
The nature of test [15]: Ratio of mice died to that of mice treated with 20 mg/kg of compound in aqueous solution intraperitoneally with L1210 leukemia; 0/10. Type of test: functional. The note with it: route intraperitoneal.
The nature of test [16]: Ratio of mice died to that of mice treated with 20 mg/kg of compound in olive oil intraperitoneally with L1210 leukemia tumor; 0/15. The note with it: route intraperitoneal. The test is classed as functional.
The test system of test [17] is Mus musculus. The experiment in a line: The number of B16 melanocarcinoma mice survived after 60 days with compound in olive oil injected by a dose of 20 mg/kg intraperitoneally; 1/20. The test is classed as functional. To be noted: route intraperitoneal.
Test [18] has as its system Mus musculus. The test can be described thus: Median survival time of the non surviving mice; treated with 5 mg/kg of compound in olive oil to mice with B16 Melanocarcinoma; 13-51. Type of test: functional.
Test [19] has as its system Mus musculus. The test can be described thus: Anti tumor activity in olive oil when treated to mice with B16 melanocarcinoma with 5 mg/kg dose of compound intraperitoneally was expressed as percent of treated to control (T/C %). Type of test: functional. The note with it: route intraperitoneal.
Test [20] relates to Mus musculus. The experiment in a line: The number of Lewis lung mice survived after 60 days with compound in olive oil injected by a dose of 20 mg/kg intraperitoneally; 15/20. The test is classed as functional. To be noted: route intraperitoneal.

Molecules are shown by their SMILES.

For `CO[C@H]1C[C@@H](NC(=O)N(CCCl)N=O)[C@H](O)[C@@H](CO)O1`, the Ratio in [1] is recorded as 0. In addition, the Survivals in the test on Mus musculus [2] and in the test on Mus musculus [4] was 6 in each case. Further, in the test listed under Mus musculus [3], the Number of deaths worked out at 4.

As usually defined, the T/C is the ratio of treated to control. For `CO[C@@H]1C[C@@H](NC(=O)N(CCCl)N=O)[C@H](O)[C@@H](C)O1`, the Ratio in [5], in test [12], in test [15] and in [16] was 0 in each case. For the same compound, the Survivals in the test on Mus musculus [6] is given as 20; in the test on Mus musculus [7], 14; in the test with Mus musculus [9], 0; with Mus musculus [10] it was 15; with Mus musculus [11], 0; in the test with Mus musculus [13], 15. The results for the Survivals in the test with Mus musculus [17] and with Mus musculus [20] were 1 and 15, respectively. Besides, the T/C worked out at 150% with Mus musculus [8] and 260% in the test on Mus musculus [19]. In addition, the Median survival time worked out at 14.2 in the test with Mus musculus [14] and 36.25 with Mus musculus [18].

Values taken from ChEMBL document CHEMBL1124317, “Rationale for the synthesis and preliminary biological evaluation of highly active new antitumor nitrosoureido sugars” (J Med Chem, 1989).
